Source: PubChem BioAssay (NCI)
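Compound exposure: 48 hours, 5 concentrations, 96-well plates. Definition used: TGI = concentration required for complete inhibition of growth.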

Assays:
Assay in all cases: NCI anticancer screen, dose series, 48 h
ACHN renal = test system: ACHN renal
EKVX NSCLC = test system: EKVX NSCLC
HCC-2998 colon = test system: HCC-2998 colon
HOP-62 NSCLC = test system: HOP-62 NSCLC
HOP-92 NSCLC = test system: HOP-92 NSCLC
HT29 colon = test system: HT29 colon
K-562 leukemia = test system: K-562 leukemia
KM12 colon = test system: KM12 colon
LXFL 529 NSCLC = test system: LXFL 529 NSCLC
MALME-3M melanoma = test system: MALME-3M melanoma
OVCAR-3 ovarian = test system: OVCAR-3 ovarian
OVCAR-8 ovarian = test system: OVCAR-8 ovarian
RPMI-8226 leukemia = test system: RPMI-8226 leukemia
RXF 393 renal = test system: RXF 393 renal
SF-539 CNS = test system: SF-539 CNS
SN12C renal = test system: SN12C renal
SW-620 colon = test system: SW-620 colon
TK-10 renal = test system: TK-10 renal
UACC-62 melanoma = test system: UACC-62 melanoma
UO-31 renal = test system: UO-31 renal

Compound | TGI (ACHN renal) [µM] | TGI (EKVX NSCLC) [µM] | TGI (HCC-2998 colon) [µM] | TGI (HOP-62 NSCLC) [µM] | TGI (HOP-92 NSCLC) [µM] | TGI (HT29 colon) [µM] | TGI (K-562 leukemia) [µM] | TGI (KM12 colon) [µM] | TGI (LXFL 529 NSCLC) [µM] | TGI (MALME-3M melanoma) [µM] | TGI (OVCAR-3 ovarian) [µM] | TGI (OVCAR-8 ovarian) [µM] | TGI (RPMI-8226 leukemia) [µM] | TGI (RXF 393 renal) [µM] | TGI (SF-539 CNS) [µM] | TGI (SN12C renal) [µM] | TGI (SW-620 colon) [µM] | TGI (TK-10 renal) [µM] | TGI (UACC-62 melanoma) [µM] | TGI (UO-31 renal) [µM]
CSC(=N)N1N=C2/C(=C/c3ccccc3)CCC[C@H]2[C@H]1c1ccccc1 | 11.8 | 19.4 | 10.4 | 20.8 | 19.5 | 5.54 | 6.09 | 23.2 | 16.7 | 3.94 | 23.8 | 24.8 | 7.12 | 9.85 | 19.5 | 14.1 | 15.3 | 25.8 | 23.9 | 13.4
COC(=O)CCC(NC(=S)N/N=C(\C)c1cnccn1)C(=O)OC (stereo not given) | > 100 | > 100 | > 100 | > 100 | > 100 | > 100 | > 100 | > 100 | > 100 | > 100 | > 100 | > 100 | > 100 | > 100 | > 100 | > 100 | > 100 | > 100 | 90.2 | > 100
